The values below come from ChEMBL document CHEMBL1201862, “PubChem BioAssay data set” (2004).

Test systems include A549; SW-620; SF-539; Malme-3M; SF-268; SK-MEL-28; UACC-257; HOP-62; NCI-H460; HL-60; UACC-62; LOX IMVI; OVCAR-8; PC-3; M14; OVCAR-5; UO-31; NCI-H226; HCT-15; SK-OV-3.
What all share (test): NCI anticancer screen, dose series, 48 h

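Tested at 5 concentrations; 48 h exposure; 96-well plates; endpoints linearly interpolated, else capped at highest concentration. GI50 marks 50% less growth.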 Active and inactive are the calls of the source. No stated cut-off is given here; in the data, active = GI50 up to about 1.1 µM and inactive = higher. A value given as a limit tells only on which side of the number the result lay.

Turning to `CO/N=C\c1ccc2c(c1)Sc1ccccc1O2`, the GI50 in the assay on A549 was 44.8 µM (inactive); in the assay with SW-620, 73.8 µM (inactive); with SF-539, 40.7 µM (inactive); in the assay on Malme-3M it was 31.4 µM (inactive); with SF-268 it was 72.3 µM (inactive); with SK-MEL-28, > 100 µM (inactive). Moreover, the GI50 with UACC-257 was 57 µM (inactive); in the assay on HOP-62, > 100 µM (inactive); in the assay on NCI-H460, 40.2 µM (inactive); in the assay with HL-60, 26.2 µM (inactive); in the assay with UACC-62, 71.1 µM (inactive); in the assay on LOX IMVI it was 53.5 µM (inactive). Also, the GI50 in the assay on OVCAR-8 is 95.9 µM (inactive); in the assay on PC-3, 51.9 µM (inactive); in the assay with M14, 30.5 µM (inactive); in the assay on OVCAR-5 it was 48.2 µM (inactive); in the assay with UO-31, 58.3 µM (inactive); with NCI-H226, > 100 µM (inactive). The GI50 in the assay with HCT-15 is 28.5 µM; in the assay with SK-OV-3 it was > 100 µM (inactive).

Take `Cc1cc(SCC(=O)c2ccc(Br)cc2)cc(C)[o+]1`: the GI50 in the assay with A549 was 31.7 µM (inactive); with SW-620, 34 µM (inactive); with SF-539, 23 µM (inactive); in the assay on Malme-3M it was 30.9 µM (inactive); in the assay on SF-268, 47.6 µM (inactive); with SK-MEL-28, 13.8 µM (inactive). Besides, the GI50 is 25.1 µM (inactive) in the assay on UACC-257; 36.8 µM (inactive) in the assay on HOP-62; 25.5 µM (inactive) in the assay on NCI-H460; 13.5 µM (inactive) in the assay with HL-60; 31.4 µM (inactive) in the assay on UACC-62; 32.1 µM (inactive) in the assay on LOX IMVI. The GI50 is 32.4 µM (inactive) in the assay with OVCAR-8; 29.4 µM (inactive) with PC-3; 26.5 µM (inactive) with M14; 20.6 µM (inactive) in the assay on OVCAR-5; 26.6 µM (inactive) with UO-31; 31.3 µM (inactive) in the assay on NCI-H226. Besides, the GI50 in the assay on HCT-15 was 32.1 µM; with SK-OV-3, 60 µM (inactive).

Consider `CN(C)CCNC(=O)c1ccc(NCCCN(C)CCCNc2ccc(C(=O)NCCN(C)C)c3nc4ccccc4c(O)c23)c2c(O)c3ccccc3nc12`, for which the GI50 in the assay on A549 is < 0.01 µM (active); in the assay with SW-620 it was 0.0171 µM (active); in the assay with SF-539, 0.274 µM (active); with Malme-3M, < 0.0153 µM (active); in the assay on SF-268 it was < 0.01 µM (active); in the assay on SK-MEL-28, 0.161 µM (active). Further, the GI50 in the assay on UACC-257 is 0.185 µM (active); in the assay with HOP-62, < 0.01 µM (active); in the assay on NCI-H460, < 0.01 µM (active); in the assay on HL-60, < 0.0229 µM (active); in the assay on UACC-62 it was 0.0525 µM (active); with LOX IMVI, < 0.01 µM (active). Besides, the GI50 in the assay on OVCAR-8 is < 0.01 µM (active); in the assay with PC-3, < 0.01 µM (active); in the assay on M14 it was 0.187 µM (active); in the assay on OVCAR-5, 0.0422 µM (active); with UO-31 it was 0.326 µM (active); with NCI-H226, < 0.0317 µM (active). Moreover, the GI50 with HCT-15 was 0.486 µM; with SK-OV-3 it was < 0.0146 µM (active).

As to `CCCCc1ccc(Nc2nc(Cl)c3ccn(C4CC(Oc5ccc(C)cc5)C(COc5ccc(C)cc5)O4)c3n2)cc1` (stereo not given), the GI50 with A549 was > 46.5 µM (inactive); in the assay with SW-620, > 46.5 µM (inactive); in the assay on SF-539 it was > 46.5 µM (inactive); in the assay with Malme-3M, 26.7 µM (inactive); with SF-268, > 100 µM (inactive); with SK-MEL-28, > 100 µM (inactive). Besides, the GI50 with UACC-257 is 25.9 µM (inactive); in the assay with HOP-62, > 100 µM (inactive); with NCI-H460, > 31.6 µM (inactive); with HL-60, > 46.5 µM (inactive); with UACC-62, 24.5 µM (inactive); in the assay on LOX IMVI it was > 46.5 µM (inactive). Moreover, the GI50 with OVCAR-8 is > 46.5 µM (inactive); in the assay on PC-3 it was > 100 µM (inactive); in the assay on M14 it was > 46.5 µM (inactive); in the assay on OVCAR-5, > 31.6 µM (inactive); in the assay with UO-31, 25.6 µM (inactive); in the assay with NCI-H226 it was > 46.5 µM (inactive). Also, the GI50 in the assay with HCT-15 was more than 46.5 µM; with SK-OV-3, > 46.5 µM (inactive).

As for `COC(=O)c1ccc(Cc2cc(Cc3ccc(C(=O)OC)cc3)cc(Cc3ccc(C(=O)OC)cc3)c2)cc1`, the GI50 in the assay with A549, in the assay on SW-620, in the assay on SF-539, in the assay on Malme-3M, in the assay on SF-268 and in the assay on SK-MEL-28 was > 25 µM (inactive) in each case. Further, the GI50 in the assay with UACC-257, in the assay with HOP-62, with NCI-H460, in the assay with HL-60, in the assay on UACC-62 and with LOX IMVI was > 25 µM (inactive) each time. In addition, the GI50 in the assay with OVCAR-8, in the assay with PC-3, in the assay with M14, in the assay on OVCAR-5, in the assay with UO-31 and with NCI-H226 was > 25 µM (inactive) throughout. In addition, the GI50 is more than 25 µM in the assay with HCT-15 and > 25 µM (inactive) in the assay on SK-OV-3.

On to `Cc1cccc(Nc2nn3c(=O)c4c5c(sc4nc3s2)CCCC5)c1`, for which the GI50 in the assay on A549 is 14.8 µM (inactive); in the assay on SW-620, 91.2 µM (inactive); in the assay on SF-539, > 100 µM (inactive); in the assay with Malme-3M, 3.15 µM (inactive); with SF-268, 3.36 µM (inactive); with SK-MEL-28 it was > 100 µM (inactive). Also, the GI50 in the assay with UACC-257 was 21.5 µM (inactive); with HOP-62 it was 28.4 µM (inactive); in the assay with NCI-H460, 6.24 µM (inactive); with HL-60, 23.4 µM (inactive); with UACC-62 it was 0.647 µM (active); with LOX IMVI, 3.33 µM (inactive). The GI50 in the assay with OVCAR-8 was 12.4 µM (inactive); in the assay with PC-3, 38.7 µM (inactive); with M14, 3.89 µM (inactive); in the assay on OVCAR-5, 87.7 µM (inactive); in the assay with UO-31, > 100 µM (inactive); in the assay on NCI-H226, > 100 µM (inactive). Also, the GI50 was 6.41 µM in the assay with HCT-15 and 45.8 µM (inactive) in the assay with SK-OV-3.

As for `CCOc1ccc(NCC2CC/C(=C\C=C\c3ccccc3)C2=O)cc1` (stereo not given), the GI50 was 42.1 µM (inactive) in the assay on A549; 5.83 µM (inactive) in the assay on SW-620; 18.9 µM (inactive) in the assay with SF-539; 22 µM (inactive) in the assay with Malme-3M; 16.4 µM (inactive) with SF-268; 16.4 µM (inactive) in the assay on SK-MEL-28. Besides, the GI50 was 18.5 µM (inactive) in the assay on UACC-257; 29.9 µM (inactive) with HOP-62; 32 µM (inactive) with NCI-H460; 17.8 µM (inactive) with HL-60; 24.4 µM (inactive) with UACC-62; 11 µM (inactive) in the assay with LOX IMVI. Further, the GI50 is 16.9 µM (inactive) in the assay on OVCAR-8; 23.6 µM (inactive) with PC-3; 13.7 µM (inactive) in the assay with M14; 21.5 µM (inactive) in the assay with OVCAR-5; 26.6 µM (inactive) with UO-31; 44.7 µM (inactive) in the assay on NCI-H226. Also, the GI50 with HCT-15 was 5.41 µM; in the assay with SK-OV-3 it was > 100 µM (inactive).

`COCOC1/C=C/CCCC#C[C@H](C)C(=O)CC1` (stereo not given in full): the GI50 was 8.07 µM (inactive) in the assay on A549; 2.71 µM (inactive) in the assay on SW-620; 16.2 µM (inactive) with SF-539; 6.68 µM (inactive) with Malme-3M; 12.2 µM (inactive) with SF-268; 15.2 µM (inactive) in the assay on SK-MEL-28. Besides, the GI50 in the assay on UACC-257 was 6.05 µM (inactive); with HOP-62, 19.5 µM (inactive); in the assay with NCI-H460 it was 8.73 µM (inactive); in the assay with HL-60 it was 2.32 µM (inactive); in the assay on UACC-62, 10 µM (inactive); in the assay with LOX IMVI, 3.05 µM (inactive). Moreover, the GI50 in the assay on OVCAR-8 was 14.5 µM (inactive); in the assay on PC-3 it was 8.69 µM (inactive); in the assay on M14, 8.15 µM (inactive); in the assay with OVCAR-5, 7.38 µM (inactive); in the assay on UO-31, 14.8 µM (inactive); in the assay with NCI-H226 it was 19.6 µM (inactive). Also, the GI50 is 8.57 µM with HCT-15 and 15.8 µM (inactive) in the assay with SK-OV-3.

Take `COc1ccc(C(=O)c2[nH]c(Nc3cc(C)ccn3)c(C(=S)Nc3ccccc3)c2N)cc1`: the GI50 was 23.4 µM (inactive) in the assay on A549; 25.3 µM (inactive) with SW-620; 18.3 µM (inactive) with SF-539; 14.6 µM (inactive) in the assay with Malme-3M; 21.9 µM (inactive) in the assay with SF-268; 17 µM (inactive) in the assay on SK-MEL-28. In addition, the GI50 in the assay with UACC-257 is 15.9 µM (inactive); in the assay on HOP-62 it was 24.7 µM (inactive); with NCI-H460, 6.04 µM (inactive); in the assay with HL-60 it was 24.3 µM (inactive); in the assay on UACC-62, 12.9 µM (inactive); with LOX IMVI, 18.7 µM (inactive). Besides, the GI50 in the assay on OVCAR-8 is 17.2 µM (inactive); in the assay on PC-3, 21.2 µM (inactive); in the assay on M14, 20.5 µM (inactive); in the assay on OVCAR-5, 26.1 µM (inactive); in the assay with UO-31, 21.8 µM (inactive); with NCI-H226 it was 17.1 µM (inactive). For the same molecule, the results for the GI50 in the assay on HCT-15 and in the assay with SK-OV-3 were 21.1 µM and 19.5 µM (inactive), respectively.

As for `CCCCCCCCCCCCCCCCCC(=O)OCC(COC(=O)CCCN)OC(=O)CCCN` (stereo not given), the GI50 with A549 is 4.1 µM (inactive); in the assay on SW-620 it was 19.6 µM (inactive); in the assay on SF-539, 18.2 µM (inactive); with Malme-3M it was 23.2 µM (inactive); in the assay with SF-268 it was 23.1 µM (inactive); in the assay on SK-MEL-28 it was 19.9 µM (inactive). In addition, the GI50 is 19.6 µM (inactive) with UACC-257; 17.4 µM (inactive) in the assay with HOP-62; 14.9 µM (inactive) in the assay on NCI-H460; 54.2 µM (inactive) in the assay with HL-60; 18.2 µM (inactive) with UACC-62; 18.5 µM (inactive) with LOX IMVI. The GI50 was 18.5 µM (inactive) in the assay with OVCAR-8; 17.1 µM (inactive) in the assay with PC-3; 16.9 µM (inactive) in the assay with M14; 15.9 µM (inactive) with OVCAR-5; 1.96 µM (inactive) with UO-31; 20.6 µM (inactive) with NCI-H226. Besides, the GI50 in the assay with HCT-15 was 23.7 µM; in the assay with SK-OV-3 it was 18.3 µM (inactive).
